Source: ChEMBL document CHEMBL1201862, “PubChem BioAssay data set” (2004)
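48-hour exposure; five concentrations; linearly interpolated endpoints. The concentration for 50% growth inhibition is given as GI50.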 Active and inactive are the calls of the source. No stated cut-off is given here; in the data, active = GI50 up to about 1.1 µM and inactive = higher.

Legend:
Experiment in all cases: NCI-60 cell line screen, 48 h
MOLT-4 = system: MOLT-4
KM12 = system: KM12
SK-MEL-2 = system: SK-MEL-2
NCI-H522 = system: NCI-H522
M19-MEL = system: M19-MEL
A549 = system: A549
LOX IMVI = system: LOX IMVI
HL-60 = system: HL-60
UACC-257 = system: UACC-257
SF-539 = system: SF-539
SNB-75 = system: SNB-75
SK-MEL-28 = system: SK-MEL-28
HCT-116 = system: HCT-116
U-251 = system: U-251
HCT-15 = system: HCT-15
SNB-19 = system: SNB-19
UO-31 = system: UO-31
OVCAR-4 = system: OVCAR-4
MDA-MB-435 = system: MDA-MB-435
BT-549 = system: BT-549

SMILES	GI50 (MOLT-4)	GI50 (KM12)	GI50 (SK-MEL-2)	GI50 (NCI-H522)	GI50 (M19-MEL)	GI50 (A549)	GI50 (LOX IMVI)	GI50 (HL-60)	GI50 (UACC-257)	GI50 (SF-539)	GI50 (SNB-75)	GI50 (SK-MEL-28)	GI50 (HCT-116)	GI50 (U-251)	GI50 (HCT-15)	GI50 (SNB-19)	GI50 (UO-31)	GI50 (OVCAR-4)	GI50 (MDA-MB-435)	GI50 (BT-549)
C/C(CC(=O)Nc1ccc(Cl)cc1)=N\NC(N)=S	45.3 µM (inactive)	21.4 µM (inactive)	> 100 µM (inactive)	47.2 µM (inactive)	66.5 µM (inactive)	26.5 µM (inactive)	1.81 µM (inactive)	12.8 µM (inactive)	21.9 µM (inactive)	34.2 µM (inactive)	> 100 µM (inactive)	> 100 µM (inactive)	71.4 µM (inactive)	> 100 µM (inactive)	–	–	–	–	–	–
NCCn1cnc2nc(NC(=O)c3ccccc3)[nH]c(=O)c21	> 100 µM (inactive)	> 100 µM (inactive)	> 100 µM (inactive)	–	> 100 µM (inactive)	> 100 µM (inactive)	> 100 µM (inactive)	> 100 µM (inactive)	> 100 µM (inactive)	> 100 µM (inactive)	45.7 µM (inactive)	> 100 µM (inactive)	> 100 µM (inactive)	> 100 µM (inactive)	> 100 µM	> 100 µM (inactive)	> 100 µM (inactive)	–	–	–
COc1ccc2c(c1OCC(=O)O)C(=O)C(CCC(=O)O)CC2 (stereo not drawn)	> 100 µM (inactive)	–	–	–	> 100 µM (inactive)	> 100 µM (inactive)	> 100 µM (inactive)	> 100 µM (inactive)	> 100 µM (inactive)	> 100 µM (inactive)	> 100 µM (inactive)	> 100 µM (inactive)	> 100 µM (inactive)	> 100 µM (inactive)	> 100 µM	> 100 µM (inactive)	–	> 100 µM (inactive)	–	–
CC(=O)O[C@]1(C)CCC2C(C)C(=O)OC2C2C(C)[C@@H](O)CC21 (stereo partly drawn)	–	49.8 µM (inactive)	20.3 µM (inactive)	13.1 µM (inactive)	23.2 µM (inactive)	52.7 µM (inactive)	17.9 µM (inactive)	14.2 µM (inactive)	> 100 µM (inactive)	39.5 µM (inactive)	60.5 µM (inactive)	34 µM (inactive)	27.2 µM (inactive)	30.1 µM (inactive)	18.1 µM	28.3 µM (inactive)	48.9 µM (inactive)	26.2 µM (inactive)	–	–
O=C(O)CCC1(Br)CCCCC(Br)C1=O (stereo not drawn)	> 100 µM (inactive)	> 10 µM (inactive)	77.4 µM (inactive)	> 100 µM (inactive)	> 100 µM (inactive)	> 100 µM (inactive)	–	> 100 µM (inactive)	> 100 µM (inactive)	> 100 µM (inactive)	35.9 µM (inactive)	> 100 µM (inactive)	> 100 µM (inactive)	> 100 µM (inactive)	> 100 µM	> 100 µM (inactive)	> 10 µM (inactive)	> 100 µM (inactive)	–	–
CCC(O)C1Cc2c(C)cc3c(c2O1)C(=O)c1ccccc1C3=O (stereo not drawn)	27.4 µM (inactive)	25.8 µM (inactive)	44.4 µM (inactive)	21.1 µM (inactive)	41.7 µM (inactive)	36 µM (inactive)	27.7 µM (inactive)	17.9 µM (inactive)	69 µM (inactive)	–	31.8 µM (inactive)	49.2 µM (inactive)	40.6 µM (inactive)	26.2 µM (inactive)	19.6 µM	36.3 µM (inactive)	21 µM (inactive)	33.3 µM (inactive)	–	–
CCCCCCCCCCCCCc1nnn[nH]1	–	18.3 µM (inactive)	18.2 µM (inactive)	21.8 µM (inactive)	19.7 µM (inactive)	20 µM (inactive)	18.4 µM (inactive)	18.1 µM (inactive)	18.7 µM (inactive)	18.2 µM (inactive)	18.3 µM (inactive)	17.8 µM (inactive)	17.9 µM (inactive)	18.2 µM (inactive)	18.3 µM	18.7 µM (inactive)	16 µM (inactive)	18.3 µM (inactive)	–	–
C[C@]12Cc3conc3C(O)=C1CC[C@@H]1C2CC[C@@]2(C)C1CC[C@@H]2O (stereo partly drawn)	6.68 µM (inactive)	12 µM (inactive)	0.634 µM (active)	2.95 µM (inactive)	11.7 µM (inactive)	17.9 µM (inactive)	4.5 µM (inactive)	2.55 µM (inactive)	21.3 µM (inactive)	15.8 µM (inactive)	9.77 µM (inactive)	12.1 µM (inactive)	–	20 µM (inactive)	5.65 µM	31.4 µM (inactive)	15.3 µM (inactive)	31.6 µM (inactive)	–	–
COc1ccccc1/C=C(\C#N)C(=O)c1ccccc1	> 100 µM (inactive)	> 100 µM (inactive)	> 100 µM (inactive)	> 100 µM (inactive)	> 100 µM (inactive)	> 100 µM (inactive)	> 100 µM (inactive)	> 100 µM (inactive)	> 100 µM (inactive)	> 100 µM (inactive)	–	> 100 µM (inactive)	> 100 µM (inactive)	> 100 µM (inactive)	> 100 µM	> 100 µM (inactive)	> 100 µM (inactive)	> 100 µM (inactive)	–	–
Cc1ccc(S(=O)(=O)c2ccc(N)cc2)cc1	> 100 µM (inactive)	47.6 µM (inactive)	> 100 µM (inactive)	–	> 100 µM (inactive)	> 100 µM (inactive)	–	> 100 µM (inactive)	> 100 µM (inactive)	> 100 µM (inactive)	> 100 µM (inactive)	> 100 µM (inactive)	> 100 µM (inactive)	> 100 µM (inactive)	> 100 µM	–	> 100 µM (inactive)	> 100 µM (inactive)	–	–
CC(=O)Oc1ccc2c(=O)c(C(C)=O)coc2c1	> 100 µM (inactive)	> 100 µM (inactive)	> 100 µM (inactive)	> 100 µM (inactive)	> 100 µM (inactive)	> 100 µM (inactive)	81.8 µM (inactive)	> 100 µM (inactive)	> 100 µM (inactive)	> 100 µM (inactive)	–	> 100 µM (inactive)	> 100 µM (inactive)	> 100 µM (inactive)	> 100 µM	> 100 µM (inactive)	> 100 µM (inactive)	> 100 µM (inactive)	–	–
CC(=O)OC(CN1CCN(c2ccccn2)CC1)Cn1sc2nc(C)cc(C)c2c1=O (stereo not drawn)	5.58 µM (inactive)	21.4 µM (inactive)	18.3 µM (inactive)	7.03 µM (inactive)	–	20.6 µM (inactive)	21.3 µM (inactive)	16.8 µM (inactive)	17.7 µM (inactive)	14.6 µM (inactive)	16 µM (inactive)	20 µM (inactive)	16.3 µM (inactive)	18.1 µM (inactive)	20 µM	> 100 µM (inactive)	16.3 µM (inactive)	22.4 µM (inactive)	16.9 µM (inactive)	18.6 µM (inactive)
c1ccc2c(c1)SC1=C(SC(=C3SC4=C(S3)Sc3ccccc3S4)S1)S2	> 100 µM (inactive)	> 100 µM (inactive)	> 100 µM (inactive)	> 100 µM (inactive)	–	> 100 µM (inactive)	> 100 µM (inactive)	> 100 µM (inactive)	> 100 µM (inactive)	> 100 µM (inactive)	49.4 µM (inactive)	> 100 µM (inactive)	> 100 µM (inactive)	> 100 µM (inactive)	> 100 µM	> 100 µM (inactive)	> 100 µM (inactive)	> 100 µM (inactive)	> 100 µM (inactive)	> 100 µM (inactive)
CCCCCCOC(=O)C(N)Cc1ccc(OC)cc1 (stereo not drawn)	> 100 µM (inactive)	> 100 µM (inactive)	> 100 µM (inactive)	> 100 µM (inactive)	–	> 100 µM (inactive)	> 100 µM (inactive)	> 100 µM (inactive)	> 100 µM (inactive)	> 100 µM (inactive)	> 100 µM (inactive)	> 100 µM (inactive)	> 100 µM (inactive)	> 100 µM (inactive)	> 100 µM	> 100 µM (inactive)	> 100 µM (inactive)	> 100 µM (inactive)	> 100 µM (inactive)	> 100 µM (inactive)
c1nc2cscc2c2cscc12	> 100 µM (inactive)	> 100 µM (inactive)	> 100 µM (inactive)	> 100 µM (inactive)	> 100 µM (inactive)	> 100 µM (inactive)	> 100 µM (inactive)	> 100 µM (inactive)	> 100 µM (inactive)	> 100 µM (inactive)	–	> 100 µM (inactive)	> 100 µM (inactive)	> 100 µM (inactive)	> 100 µM	> 100 µM (inactive)	> 100 µM (inactive)	> 100 µM (inactive)	–	–
Cc1c2ccnc(C(=O)NCCN(C)C)c2cc2c3cc(O)ccc3n(C)c12	< 0.01 µM (active)	0.678 µM (active)	0.499 µM (active)	0.236 µM (active)	–	0.0173 µM (active)	0.11 µM (active)	< 0.022 µM (active)	1.53 µM (inactive)	0.0603 µM (active)	0.33 µM (active)	0.328 µM (active)	0.0608 µM (active)	0.0373 µM (active)	0.12 µM	0.184 µM (active)	0.267 µM (active)	0.537 µM (active)	0.282 µM (active)	2.06 µM (inactive)
CC(C)(C)OC(=O)NCC(=O)OCc1ccccc1	> 100 µM (inactive)	> 100 µM (inactive)	> 100 µM (inactive)	> 10 µM (inactive)	> 100 µM (inactive)	> 100 µM (inactive)	> 100 µM (inactive)	> 100 µM (inactive)	> 100 µM (inactive)	> 100 µM (inactive)	> 100 µM (inactive)	> 100 µM (inactive)	> 100 µM (inactive)	> 100 µM (inactive)	> 100 µM	> 100 µM (inactive)	> 100 µM (inactive)	–	–	–
